Experimental data: ChEMBL document CHEMBL1130992, “Effect of side chain location in (2-aminoethyl)-aminomethyl-2-phenylquinolines as antitumor agents” (1998)

Experiments:
Nucleic Acid [1] = assay: Compound was evaluated for DNA-binding affinity using poly[d(GC)]2; format: nucleic-acid assay
HeLa [2] = assay: Compound was tested for antitumor activity against the human uterine cancer cell (HeLa) line at concentration of 1 x 10 e-7 M; format: functional
Nucleic Acid [3] = assay: Compound was evaluated for DNA-binding affinity using poly[d(AT)]2; format: nucleic-acid assay
HeLa [4] = assay: Compound was tested for antitumor activity against the human uterine cancer cell (HeLa) line at concentration of 1 x 10 e-6 M; format: functional
HeLa [5] = assay: Compound was tested for antitumor activity against the human uterine cancer cell (HeLa) line at concentration of […] x 10 e-5 M; format: functional
[6] = Ratio of C50(GC) to that of C50(AT)
Nucleic Acid [7] = assay: Compound was evaluated for DNA-binding affinity using calf-thymus DNA; format: nucleic-acid assay; conditions: Bos taurus
HeLa [8] = assay: Compound was tested for antitumor activity against the human uterine cancer cell (HeLa) line at concentration of […] x 10 e-4 M; format: functional

For `Cl.Cl.Cl.NCCNCc1ccc(-c2ccc3ccccc3n2)cc1`, which C50 (Nucleic Acid [1]) is on record?
Its C50 is 11 µM.

What about the Cell survival (HeLa [2]) of the same compound?
The Cell survival was 79%.

And the C50 (Nucleic Acid [3])?
Its C50 is 7 µM.

And the Cell survival (HeLa [4])?
The Cell survival was 87%.

And the Cell survival (HeLa [5])?
Its Cell survival is 65%.

And the Ratio [6]?
Its Ratio is 1.6.

And the C50 (Nucleic Acid [7])?
Its C50 is 7 µM.

What about the Cell survival (HeLa [8]) of the same compound?
The Cell survival was 3%.

Which Cell survival (HeLa [2]) does the source give for `Cl.Cl.Cl.NCCNCc1c2ccccc2nc2ccccc12` here?
The Cell survival was 100%.

And the Cell survival (HeLa [4])?
Its Cell survival is 94%.

And the Cell survival (HeLa [5])?
Its Cell survival is 71%.

And the Cell survival (HeLa [8])?
The Cell survival was 3%.

With `Cl.Cl.Cl.NCCNCc1ccc2ccc(-c3ccccc3)nc2c1` as the compound, how does the C50 (Nucleic Acid [1]) read?
Its C50 is 16 µM.

What about the Cell survival (HeLa [2]) of the same compound?
The Cell survival was 98%.

And the C50 (Nucleic Acid [3])?
Its C50 is 11 µM.

What about the Cell survival (HeLa [4]) of the same compound?
Its Cell survival is 70%.

And the Cell survival (HeLa [5])?
Its Cell survival is 31%.

What about the Ratio [6] of the same compound?
Its Ratio is 1.5.

What about the C50 (Nucleic Acid [7]) of the same compound?
Its C50 is 11 µM.

What about the Cell survival (HeLa [8]) of the same compound?
The Cell survival was 3%.

For `Cl.Cl.Cl.NCCNCc1cccc2ccc(-c3ccccc3)nc12`, which C50 (Nucleic Acid [1]) is on record?
Its C50 is 5.6 µM.

What about the Cell survival (HeLa [2]) of the same compound?
Its Cell survival is 77%.

And the C50 (Nucleic Acid [3])?
The C50 was 5.2 µM.

What about the Cell survival (HeLa [4]) of the same compound?
The Cell survival was 65%.

And the Cell survival (HeLa [5])?
Its Cell survival is 7%.

What about the Ratio [6] of the same compound?
Its Ratio is 1.1.

What about the C50 (Nucleic Acid [7]) of the same compound?
Its C50 is 2.1 µM.

What about the Cell survival (HeLa [8]) of the same compound?
The Cell survival was 0%.

With `Cl.Cl.Cl.NCCNCc1cc(-c2ccccc2)nc2ccccc12` as the compound, how does the C50 (Nucleic Acid [1]) read?
The C50 was 48 µM.

And the Cell survival (HeLa [2])?
The Cell survival was 74%.

And the C50 (Nucleic Acid [3])?
The C50 was 33 µM.

What about the Cell survival (HeLa [4]) of the same compound?
The Cell survival was 62%.

What about the Cell survival (HeLa [5]) of the same compound?
Its Cell survival is 52%.

What about the Ratio [6] of the same compound?
Its Ratio is 1.5.

And the C50 (Nucleic Acid [7])?
The C50 was 30 µM.

And the Cell survival (HeLa [8])?
The Cell survival was 8%.

Which results are given for `Cl.Cl.NCCNCc1ccc2nc(-c3ccccc3)ccc2c1`?
Cell survival (HeLa [2]): 85%; Cell survival (HeLa [4]): 82%; Cell survival (HeLa [5]): 44%; Cell survival (HeLa [8]): 0%
